A short description of series [1]: Self-stimulation test (electrodes in lateral hypothalamus). Format: in vivo. The note with it: rats. The source says:
A self-stimulation test has been used to measure the capacity of a given pharmacological agent to inhibit rats from receiving self-induced electrical stimuli via electrodes implanted in their brains (lateral hypothalamus). Stellar J. R. and Stellar E., The Neurobiology of Motivation and Reward, Springer-Verlag, New York, 1985. Animals will press levers to receive a pulse of current from the implanted electrode at a rate dependent upon the quantity of current that is being delivered as a reward. […] R.). […] A plot of the log of the frequency of the delivered pulses vs. the rate of level press for an animal gives the self-stimulation reward curve. Injections of drugs which have a neuroleptic-type or tranquilizing effect can depress the rate of self-stimulation, shifting the response to higher current deliveries. Pemozide can give a depressed rate by about 90%. […] The animal continues to press the lever at the rate equivalent to a non-injected control or one receiving the vehicle alone.

Series [2] can be described thus: Circling behavior in rats with unilateral nigrostriatal lesions. Format: in vivo. The note with it: for AVERAGE ROTATION SCORES (Rotations/minutes) Contralateral / AVERAGE ROTATION SCORES (Rotations/minutes) Ipsilateral: 30-min period; for circling behavior (in words): rats with nigrostriatal lesions, i.p. On the procedure: Dopamine agonists such as apomorphine and amphetamine cause circling behavior in animals with nigrostriatal lesions.
Unilateral nigrostriatal lesions in rats were produced by administering unilateral injections of 6-OH dopamine into the nigrostriatum pathway. Seven days later, these animals were i.p. injected with the test drugs and circling behavior was recorded as rotations per minute during a 30-min period in the test apparatus, Ungerstedt U. and Arbathnott G. W., Brain Res. 24, 485-493 (1970).

Series [3] in a line: Brain penetration index (BPI) determination, brain uptake relative to liver. Format: in vivo, male balb C mice. The note with it: for brain uptake / BPI relative to dopamine: compared with dopamine. From the text:
A brain penetration index (BPI) determination was used as a criterion for measuring the capacity of a compound to cross the blood brain barrier. Shashoua, V. E., Jacob, J. N., Ridge, R., Campbell, A. and Baldessarini, R. J., J. Med. Chem. 27, 659 (1984). The BPI is a measure of the uptake of a compound by the brain relative to its uptake by the liver. The liver is chosen as a reference since it is an organ which has no barrier to diffusable molecules present in the blood. Moreover, even if subcutaneous injections are used, the injected material tends to remain largely at the site of the injection and slowly diffuse into the circulation. Therefore, the amount of material in the liver will reflect the amount available rather than the initial dose injected.
Measurements of the quantity of the drug present in the brain and liver were measured at five minutes after a subcutaneous injection and were used to calculate the BPI, the equation being: […]
For these measurements, compound 8739 was synthesized from ^14C-labeled dopamine. Thirty μCi of dopamine labeled hydrochloride was mixed with 0.1 mg of unlabeled dopamine hydrobromide and reacted with a two-fold excess of DHA anhydride. The reaction was run overnight; the product was then evaporated to dryness and dissolved in ethanol. The compound was identified as 8739 by its migration properties on thin-layer chromatography using chloroform:methanol as one solvent and dimethylformamide (DMF) as the other. The migration properties were equivalent to those of the unlabeled product.
^14C-labeled 8739 was dissolved in 15% propylene glycol in 0.1 M NaHCO3 and then injected subcutaneously (s.c.) into male balb C mice (20±2 g). After 5 minutes the animals were sacrificed by cervical fracture and the brain and liver were dissected out, weighed and homogenized in 8 and 10 ml of Brain Protein Solvent (BPS) buffer, respectively [BPS=2% sodium dodecyl sulfate in 0.03 M Tris, 6 M urea, pH 7.6, 0.01 M EDTA and 0.14 N NaCl]. Aliquots were then counted for ^14C content in 10 ml of a liquid scintillation fluid, Liquiscent (National Diagnostic Company, Somerville, N.J.) using a Beckman liquid scintillation counter. The ^14C counts were then used to calculate the total quantity of compound 8739 present in the brain per gram of tissue as compared to that in the liver. The ratio of the amount in the brain as a percent of that present in liver was determined.

Setting [4] is: 14C-labeled, s.c. injection, mice, 5 minutes after injection.

Each structure is given as a SMILES string. Several values for one entry are separate records, joined by “and”; a condition that tells them apart may be missing. Equal entries are not always repeated. Entries after “also recorded” stand apart in the source; their conditions may differ.

In the case of `CC/C=C\C/C=C\C/C=C\C/C=C\C/C=C\C/C=C\CCC(=O)NCCc1ccc(O)c(O)c1` [Compound 8739], the “effect on self-stimulation parameters (reward, motor aspect, motivation)” value in series [1] is “no effect on either the reward or the motor aspect; also recorded: do not result”. Further, the “AVERAGE ROTATION SCORES (Rotations/minutes) Contralateral” value in series [2] (34 mg/kg i.p.) stood at 0.05 Rotations/minutes; in series [2] (51 mg/kg i.p.), 0.12 Rotations/minutes. Moreover, the “AVERAGE ROTATION SCORES (Rotations/minutes) Ipsilateral” value in series [2] (34 mg/kg i.p.) and in series [2] (51 mg/kg i.p.) was 0.08 Rotations/minutes each time. Besides, the “circling behavior (in words)” value in series [2] is reported as “failed to produce an effect; also recorded: did not evoke this behavior”; in series [2] (listed as compound 8739), “do not result”. For the same compound, in series [3] (setting [4]), the “Brain (cpm/g)” value was 1305 cpm/g and 1297 cpm/g. Further, the “Liver (cpm/g)” value in series [3] (setting [4]) was 4300 cpm/g and 3931 cpm/g. Besides, the “BPI Value (%)” value in series [3] (BPI=[brain]/[liver]x100, 5 minutes after s.c. injection) was 30% and 33%. In addition, the results for the “brain uptake / BPI relative to dopamine” value in series [3] and in series [3] (listed as compound 8739) were “eight times that of dopamine” and “over eight-fold higher”, respectively.

The values are drawn from patent US6407137B2, “Dopamine analog amide” (Protarga, Inc., priority 1988, dated 2002).
